Reference: PMC4721142, “Randomized controlled studies on the efficacy of antiarthritic agents in inhibiting cartilage degeneration and pain associated with progression of osteoarthritis in the rat” (Arthritis Research & Therapy, 2016)
“And” between values parts separate entries of the source, which are not always exact repeats. Identical values can stand only once.

How the values were obtained:
MIA rat model of OA = test: MIA trial 2 histopathology (same doses as dRS test); type: in vivo; parameters: key to Total joint score with matrix / Total joint score w/o matrix: sum of cartilage degeneration, osteophyte and bone scores (± matrix); details: group mean
Experimental: Following functional testing in the first and second MIA trials, femurs were fixed in paraformaldehyde, processed, sectioned, stained with hematoxylin and eosin or Safranin O at Premier Laboratory (Longmont, CO, USA), and analyzed by a veterinary pathologist. For MIA trial 1, sections were evaluated for the percentage area of chondrocyte necrosis and/or proteolytic degeneration using a 5-point scale with 0 = none; 1 being <10 %; 2 = 10–30 %; 3 = 30–60 %; 4 = 60–90 %; and 5 being >90 %. Other characteristics of inflammation, proliferation, and integrity of the synovium, subchondral bone, and articular cartilage were scored as normal, minimal, mild, moderate, marked, or increased or decreased when severity was not graded. MIA trial 2 was measured similarly and then cross-checked according to the methods used for MIA trial 3 (see text below).
For MIA trial 3, joints were fixed and toluidine blue–stained sections of the rat knees were comprehensively analyzed from test and control subjects as detailed in Additional file 1. Briefly, a 5-point cartilage matrix score was derived based upon (1) approximate percentage of total loss of articular chondrocytes for each of four articular surfaces, (2) estimated proteoglycan loss (via Safranin O staining), and (3) loss of interstitial matrix. Chondrocyte necrosis and proteolytic degeneration of the femurs were scored on a 5-point scale as in trial 1. A femoral cartilage degeneration score and a three-zone sum of the tibial cartilage degeneration scores (mean of three levels) were also summed to create a total cartilage degeneration score. The mean osteophyte score for each joint was added to this value to create a total joint score with matrix. Other parameters assessed included synovial membrane inflammation and proliferation. Representative images from each group were also collected (see, e.g., Fig. 4 and Additional file 1: Fig. S55, Trial 3).
The histopathology for the first MIA trial was performed by Premier Laboratories (Dr. Michael Hawes, APS, Pathologist). Treatments were masked during the assessment. Chondrocyte necrosis and proteolytic degeneration of the femurs were scored on a 5 point scale with 0 = None; 1 = <10%; […]
proteoglycan content (safranin O staining), synovial membrane inflammation and proliferation, subchondral bone, and articular cartilage (as indicated in Supplementary methods). Characteristics within these categories were scored as normal, minimal, mild, moderate, marked, or +/- when severity was not graded. Slides from Trial 2 were further reviewed by Dr. Bendele using the analytical method described below for the MMT/MCLT model to confirm any conclusions.
For the histopathology of the MIA model in Trial 3, completed by Bolder BioPATH (and Dr.
Bendele), a tolouidine blue stained slide containing both halves of the joint was comprehensively analyzed from test and control subjects. Approximate % of total loss of articular chondrocytes, loss of proteoglycan and loss of collagenous matrix were determined for each articular surface (medial tibial plateau (MTP), lateral tibial plateau (LTP), medial femoral condyle (MFC), and lateral femoral condyle (LFC). Chondrocyte loss was quantified by estimating the area of cartilage in which there were no apparently viable chondrocytes and proteoglycan loss was quantified by estimating differences in intensity of toluidine blue matrix staining. Loss of interstitial matrix was an indication of disruption and diminished type II collagen. Based on the mean % loss for the four surfaces in these parameters, a five point matrix score was utilized with the subchondral bone resorption, subchondral bone sclerosis and osteophyte scores to achieve a total joint score.
Histopathology MMT/MCLT Model

MMT/MCLT rat model of OA = test: MMT/MCLT trial 1 histopathology (same doses); type: in vivo; parameters: key to Tibial cartilage degeneration score, 3-zone total: sum of three tibial zone scores (each on 5-point scale); key to Total joint score w/o femur / Total joint score / Total joint score without femur: sum: cartilage degeneration scores + mean osteophyte score; details: for Bone score / Depth ratio any matrix change, mean / Depth ratio any matrix change, zone 2 / Tibial cartilage degeneration score, 3-zone total / Tibial cartilage degeneration score, zone 1 / Tibial cartilage degeneration score, zone 2 / Tibial cartilage degeneration score, zone 3 / Tibial cartilage degeneration width, significant / Tibial cartilage degeneration width, total / Tibial osteophyte measure / Tibial osteophyte score / Total joint score w/o femur: mean; for % decrease, bone score / % decrease, depth ratio mean / % decrease, depth ratio zone 2 / % decrease, femoral cartilage degeneration score / % decrease, osteophyte measure / % decrease, osteophyte score / % decrease, significant degeneration width / % decrease, tibial score 3-zone total / % decrease, tibial score zone 1 / % decrease, tibial score zone 2 / % decrease, tibial score zone 3 / % decrease, total degeneration width / % decrease, total joint score / % decrease, total joint score w/o femur: vs saline group
Procedure, shortened: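 Rat knee joints were sectioned in 200-μm steps and stained with toluidine blue. Tibial cartilage degeneration was scored on a 5-point scale in three zones and summed with femoral scores, plus osteophyte scores, to give a total joint score. Results were averaged over three sections.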

[1] = tacrolimus 0.3 mg/kg, other drugs single dose
[2] = tacrolimus 0.6 mg/kg, fluocinolone 10 μg/kg

## C=CC[C@@H]1/C=C(\C)C[C@H](C)C[C@H](OC)[C@H]2O[C@@](O)(C(=O)C(=O)N3CCCC[C@H]3C(=O)O[C@H](/C(C)=C/[C@@H]3CC[C@@H](O)[C@H](OC)C3)[C@H](C)[C@@H](O)CC1=O)[C@H](C)C[C@@H]2OC [Tacrolimus]
MIA rat model of OA; [1]
  Bone resorption score: 4.3
  Bone resorption, percent of surface, LFC: 88%
  Bone resorption, percent of surface, LTP: 88%
  Bone resorption, percent of surface, MFC: 70%
  Bone resorption, percent of surface, MTP: 94%
  Bone resorption, percent of surface, mean: 85%
  Cartilage matrix damage score: 3.8 and 3.8 ± 0.6
  Mean of all cartilage loss: 69%
  Osteophyte measure: 700.0 µm
  Osteophyte score: 3.5
  Subchondral bone sclerosis score: 0.0
  Total joint score w/o matrix: 7.8
  Total joint score with matrix: 11.5 and 11.5 ± 1.7
MIA rat model of OA; tacrolimus 0.6 mg/kg i.p.
  Bone resorption score: 3.8
  Bone resorption, percent of surface, LFC: 80%
  Bone resorption, percent of surface, LTP: 70%
  Bone resorption, percent of surface, MFC: 63%
  Bone resorption, percent of surface, MTP: 68%
  Bone resorption, percent of surface, mean: 70%
  Cartilage matrix damage score: 3.8 and 3.8 ± 0.6
  Mean of all cartilage loss: 62%
  Osteophyte measure: 550.0 µm
  Osteophyte score: 2.8
  Subchondral bone sclerosis score: 0.0
  Total joint score w/o matrix: 6.5
  Total joint score with matrix: 10.3 and 10.3 ± 2.1
MMT/MCLT rat model of OA; low or only dose
  Bone score: 2.63
  Depth ratio any matrix change, mean: 0.26
  Depth ratio any matrix change, zone 2: 0.07
  Tibial cartilage degeneration score, 3-zone total: 4.25
  Tibial cartilage degeneration score, zone 1: 2.75
  Tibial cartilage degeneration score, zone 2: 1.50
  Tibial cartilage degeneration score, zone 3: 0.00
  Tibial cartilage degeneration width, significant: 441.67 µm
  Tibial cartilage degeneration width, total: 1137.50 µm
  Tibial osteophyte measure: 370.83 µm
  Tibial osteophyte score: 2.38
  Total joint score w/o femur: 6.63
  % decrease, bone score: 19%
  % decrease, depth ratio mean: 29%
  % decrease, depth ratio zone 2: 59%
  % decrease, femoral cartilage degeneration score: 73%
  % decrease, osteophyte measure: 28%
  % decrease, osteophyte score: 39%
  % decrease, significant degeneration width: 39%
  % decrease, tibial score 3-zone total: 35%
  % decrease, tibial score zone 1: 36%
  % decrease, tibial score zone 2: 32%
  % decrease, tibial score zone 3: 100%
  % decrease, total degeneration width: 13%
  % decrease, total joint score: 42%
  % decrease, total joint score w/o femur: 37%
MMT/MCLT rat model of OA; [2]
  Bone score: 3.00
  Depth ratio any matrix change, mean: 0.22
  Depth ratio any matrix change, zone 2: 0.02
  Tibial cartilage degeneration score, 3-zone total: 3.63
  Tibial cartilage degeneration score, zone 1: 2.42
  Tibial cartilage degeneration score, zone 2: 1.21
  Tibial cartilage degeneration score, zone 3: 0.00
  Tibial cartilage degeneration width, significant: 325.00 μm
  Tibial cartilage degeneration width, total: 945.83 μm
  Tibial osteophyte measure: 370.00 μm
  Tibial osteophyte score: 2.38
  Total joint score w/o femur: 6.00
  % decrease, bone score: 8%
  % decrease, depth ratio mean: 40%
  % decrease, depth ratio zone 2: 87%
  % decrease, femoral cartilage degeneration score: 48%
  % decrease, osteophyte measure: 28%
  % decrease, osteophyte score: 39%
  % decrease, significant degeneration width: 55%
  % decrease, tibial score 3-zone total: 45%
  % decrease, tibial score zone 1: 44%
  % decrease, tibial score zone 2: 45%
  % decrease, tibial score zone 3: 100%
  % decrease, total degeneration width: 28%
  % decrease, total joint score: 43%
  % decrease, total joint score w/o femur: 43%
MMT/MCLT rat model of OA; tacrolimus 0.3 mg/kg
  % decrease, combined width severe+marked: 86%
  % decrease, combined width severe+marked+moderate: 88%
  % decrease, combined width severe+marked+moderate+mild: 33%
  % decrease, width of moderate collagen degeneration: 91%
  % decrease, width of severe collagen degeneration: 97%
  % increase, area of any cartilage matrix: 59%
MMT/MCLT rat model of OA; tacrolimus 0.3 mg/kg, fluocinolone 5 ug/kg
  % increase, area of viable cartilage matrix: 26%
MMT/MCLT rat model of OA; tacrolimus 0.6 mg/kg
  % decrease, combined width severe+marked: 99%
  % decrease, combined width severe+marked+moderate: 96%
  % decrease, combined width severe+marked+moderate+mild: 53%
  % decrease, width of marked collagen degeneration: 97%
  % decrease, width of severe collagen degeneration: 100%
  % decrease, width of total collagen degeneration: 19%
  % increase, area of any cartilage matrix: 69%
  % increase, width of normal collagen: 19%
MMT/MCLT rat model of OA; tacrolimus 0.6 mg/kg, fluocinolone 10 ug/kg
  % increase, area of viable cartilage matrix: 33%
